From patent US20240083846A1, “SMAC MIMETICS FOR TREATMENT OF CANCER, PROCESS FOR PREPARATION AND PHARMACEUTICAL COMPOSITION THEREOF” (COUNCIL OF SCIENTIFIC & INDUSTRIAL RESEARCH, priority 2020, published 2024) come the findings set out here.

Like-named read-outs stand apart in the source and are kept apart here. Where a SMILES comes first, the peptide text is derived from it. [ ]: non-standard residue; d: D form. The star is where a group is joined. Pro(5R-(5-methylfur-2-yl)) = Cc1ccc([C@H]2CC[C@@H](C(=O)O)N2)o1; NHCHPh2 = c1ccc(C(N*)c2ccccc2)cc1; Chg = N[C@H](C(=O)O)C1CCCCC1; NMeA = CN[C@@H](C)C(=O)O; OBn = c1ccc(CO*)cc1

The subject of series [1] is SW 620 cells. Put plainly: SRB cytotoxicity assay, SW 620. The format is cell-based. The following applies: for inhibition at 10 µM: Homo sapiens, read-out: In vitro cytotoxicity at 10 μM dose, SW 620 (percent growth inhibition). Here is the method: (§1) In vitro cytotoxic activities of different compounds were assessed by using standard SRB assay in different cells. The absorbance of the treated and untreated cells was measured on a multi-well scanning spectrophotometer (Epoch Microplate Reader, Biotek, USA) at a wavelength of 510 nm. Percent growth inhibition was calculated by using the formula […].
In general terms: Sulforhodamine B stains cellular protein and so reports cell mass.

The test system of series [2] is HT29 cells. Put plainly: SRB cytotoxicity assay, HT29. Format: cell-based. The note with it: for inhibition at 10 µM: Homo sapiens, read-out: In vitro cytotoxicity at 10 μM dose, HT29 (percent growth inhibition). The protocol: as §1
Series [3] in a line: SRB cytotoxicity assay, VERO. The format is cell-based, monkey. The note with it: monkey. Here is the method: as §1
Series [4] deals with HCT 116 cells. Kind of series: SRB cytotoxicity assay, HCT 116. The format is cell-based. The following applies: Homo sapiens, read-out: In vitro cytotoxicity at 10 μM dose, HCT 116 (percent growth inhibition). Here is the method: as §1
The target in series [5] is XIAP BIR2 protein (Homo sapiens, UniProt P98170). Kind of series: Fluorescence polarization competition binding assay, XIAP BIR2. Here is the method: (§2) The SMAC mimetics 1-9 were tested for their ability to displace the fluorescent labeled peptide AVPIAQK(FAM)-OH from XIAP BIR2 or XIAP BIR3 protein. The dose dependent binding experiment were then carried out by sequentially increasing the concentration of SMAC mimetic compounds at constant concentration of fluorescent labeled peptide and XIAP BIR2 or XIAP BIR3 protein. IC5- values were determined from the plot draw by prism software using nonlinear least-squares analysis. The Ki values of the SMAC mimetics were calculated which was based upon the measured IC50 values, the Kd value between tracer AVPIAQK(FAM)-OH and XIAP BIR2 or XIAP BIR3 complex, and the concentrations of the protein and tracer in the competition assay by using the web based program which are freely accessed at http://sw16.im.med.umich.edu/software/calc_ki/.In-silico.
(§3) Binding isotherms were plotted between FP reading versus log values of protein concentration in nM. The data was analysed using GraphPad prism and Kd values were determined using Boltzmann-sigmoidal non-linear regression curve fitting.

The target in series [6] is XIAP BIR3 protein (Homo sapiens, UniProt P98170). Kind of series: Fluorescence polarization competition binding assay, XIAP BIR3. Here is the method:
as §2, §3
A general note: Fluorescence polarisation rises when a labelled molecule tumbles more slowly, as on binding a larger partner.

Series [7] deals with SW-620 xenograft. Kind of series: Cisplatin resistant SW-620 xenograft model. The format is in vivo, nude Crl: CD1-Foxnlnu mice. The following applies: FIG. 7. The source says:
All the animals were maintained in a pathogen-free facility under a day—night cycle.

[8] abbreviates: SW-620, 10 μM, 48 hours, SRB assay.
The mark [9] stands for this setting: VERO cells, 10 μM, 48 hours, SRB assay, read-out: In vitro cytotoxicity at 10 μM dose, VERO (percent growth inhibition).
Where [10] appears, read: HCT-116, 10 μM, 48 hours, SRB assay.
[11] abbreviates: HT-29, 10 μM, 48 hours, SRB assay.
Setting [12] is: displacement of AVPIAQK(FAM)-OH, fluorescence polarization, read-out: Target Binding BIR2 Ki.
The mark [13] stands for this setting: displacement of AVPIAQK(FAM)-OH, fluorescence polarization, read-out: Target Binding BIR3 Ki.

XIAP BIR2 protein, sequence (P98170 124-240 limits assumed): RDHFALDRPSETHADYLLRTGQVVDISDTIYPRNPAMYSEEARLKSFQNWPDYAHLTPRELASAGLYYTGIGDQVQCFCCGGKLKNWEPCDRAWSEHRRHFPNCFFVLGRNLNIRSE
XIAP BIR3 protein, sequence (P98170 241-356 limits assumed): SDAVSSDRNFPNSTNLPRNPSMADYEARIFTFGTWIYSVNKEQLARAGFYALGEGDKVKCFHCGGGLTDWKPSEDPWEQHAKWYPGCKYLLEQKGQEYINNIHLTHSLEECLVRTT

On to `CC[C@H](C)[C@H](NC(=O)[C@@H]1CCCN1C(=O)[C@@H](NC(=O)[C@H](C)N)C(C)C)C(=O)O` [Compound 1, L-alanyl-L-valyl-L-prolyl-L-isoleucine], for which the “In vitro cytotoxicity at 10 μM dose, SW 620 (percent growth inhibition)” value in series [1] (10 μM, 48 hours, SRB assay) is recorded as 0.97 ± 2.3%. In addition, the “In vitro cytotoxicity at 10 μM dose, HT29 (percent growth inhibition)” value in series [2] (10 μM, 48 hours, SRB assay) is reported as −0.01 ± 3.6%.

One may read the inhibition as the drop in the measured response relative to a control, in per cent. The term Ki denotes the equilibrium dissociation constant of an inhibitor or competing ligand from its target. Turning to `CC[C@H](C)[C@H](NC(=O)[C@@H]1CC[C@H](c2ccc(C)o2)N1C(=O)[C@@H](NC(=O)[C@H](C)N)C(C)C)C(=O)OCc1ccccc1` [Compound 2, benzyl ((2S,5R)-1-(L-alanyl-L-valyl)-5-(5-methylfuran-2-yl)pyrrolidine-2-carbonyl)-L-isoleucinate], the inhibition at 10 µM in series [1] (setting [8]) was 7.88 ± 8%; in series [4] (setting [10]), -7.06 ± 6.9%; in series [2] (setting [11]), -1.83 ± 5.5%. For the same compound, the inhibition at 48 h, 10 μM in series [3] (setting [9]) came to 24.2 ± 22.7%. The Ki in series [5] (setting [12]) and in series [6] (setting [13]) was > 10000 nM each time.

Turning to `Cc1ccc([C@H]2CC[C@@H](C(=O)NC(c3ccccc3)c3ccccc3)N2C(=O)[C@@H](NC(=O)[C@H](C)N)C(C)C)o1` [Compound 3, (2S,5R)-1-(L-alanyl-L-valyl)-N-benzhydryl-5-(5-methylfuran-2-yl)pyrrolidine-2-carboxamide], the inhibition at 10 µM in series [1] (setting [8]) was 1.44 ± 2.1%; in series [4] (setting [10]), -2.6 ± 6.1%; in series [2] (setting [11]), -0.46 ± 2.2%. In series [3] (setting [9]), the inhibition at 48 h, 10 μM was found to be 3.89 ± 3.4%. For the same compound, the inhibitory constant (Ki) in series [5] (setting [12]) turned out to be 1080 nM; in series [6] (setting [13]), 230 nM.

Consider `CC[C@H](C)[C@H](NC(=O)[C@@H]1CC[C@H](c2ccc(C)o2)N1C(=O)[C@@H](NC(=O)[C@H](C)NC)C(C)C)C(=O)OCc1ccccc1` [Compound 4, (2S,3S)-benzyl 3-methyl-2-((2S,5R)-1-((S)-3-methyl-2-((S)-2-(methylamino)propanamido)butanoyl)-5-(5-methylfuran-2-yl)pyrrolidine-2-carboxamido)pentanoate], for which the inhibition at 10 µM is -4.1% in series [1] (setting [8]), -8.07 ± 6.6% in series [4] (setting [10]) and 12 ± 0.6% in series [2] (setting [11]). Further, in series [3] (setting [9]), the inhibition at 48 h, 10 μM was 4.54 ± 5.6%. For the same compound, the inhibitory constant (Ki) in series [5] (setting [12]) came to 7390 nM; in series [6] (setting [13]), 4380 nM.

In the case of `CN[C@@H](C)C(=O)N[C@H](C(=O)N1[C@@H](c2ccc(C)o2)CC[C@H]1C(=O)NC(c1ccccc1)c1ccccc1)C(C)C` [Compound 5, (2S,5R)-N-benzhydryl-1-(methyl-L-alanyl-L-valyl)-5-(5-methylfuran-2-yl)pyrrolidine-2-carboxamide], the inhibition at 10 µM is 8.11 ± 11.3% in series [1] (setting [8]), 5.96 ± 1.2% in series [4] (setting [10]) and 40.9 ± 5.3% in series [2] (setting [11]). In series [3] (setting [9]), the inhibition at 48 h, 10 μM was 11.4 ± 1.1%. Also, the Ki in series [5] (setting [12]) amounted to 3250 nM; in series [6] (setting [13]), 500 nM.

In the case of `CC[C@H](C)[C@H](NC(=O)[C@@H]1CC[C@H](c2ccc(C)o2)N1C(=O)[C@@H](NC(=O)[C@H](C)NC)C1CCCCC1)C(=O)OCc1ccccc1` [Compound 7, (2S,3S)-benzyl 2-((2S,5R)-1-((S)-2-cyclohexyl-2-((S)-2-(methylamino)propanamido)acetyl)-5-(5-methylfuran-2-yl)pyrrolidine-2-carboxamido)-3-methylpentanoate] (H-[NMeA][Chg][Pro(5R-(5-methylfur-2-yl))]I-OBn), the inhibition at 10 µM in series [1] (SW-620, 48 h) came out at 52.9 ± 22.4%; in series [4] (HCT-116, 48 h), 76.5 ± 2.3%; in series [2] (HT-29, 48 h) it was 71.6 ± 10.2%. Further, the inhibition at 48 h, 10 μM in series [3] is 63.2 ± 5%. Also, the inhibitory constant (Ki) in series [5] (setting [12]) is > 10000 nM; in series [6] (setting [13]), 1420 nM.

Regarding `CN[C@@H](C)C(=O)N[C@H](C(=O)N1[C@@H](c2ccc(C)o2)CC[C@H]1C(=O)NC(c1ccccc1)c1ccccc1)C1CCCCC1` [Compound 8, (2S ,5R)-N-benzhydryl-1-((S)-2-cyclohexyl-2-((S)-2-(methylamino)propanamido)acetyl)-5-(5-methylfuran-2-yl)pyrrolidine-2-carboxamide], the inhibition at 10 µM in series [1] (setting [8]) was found to be 38.7 ± 12.6%; in series [4] (setting [10]), 48.5 ± 6.7%; in series [2] (setting [11]), 66 ± 2.4%. The inhibition at 48 h, 10 μM in series [3] (setting [9]) is 39.4 ± 6.9%. Besides, the inhibition constant Ki in series [5] (setting [12]) is 1800 nM; in series [6] (setting [13]), 730 nM.

As for `CC[C@H](C)[C@H](NC(=O)[C@@H]1CC[C@H](c2ccc(C)o2)N1C(=O)[C@@H](NC(=O)[C@H](C)NC)C1CCCCC1)C(=O)NC(c1ccccc1)c1ccccc1` [Compound 9, (2S,5R)-N-((2S ,3S)-1-(benzhydrylamino)-3-methyl-l-oxopentan-2-yl)-1-((S)-2-cyclohexyl-2-((S)-2-(methylamino)propanamido)acetyl)-5-(5-methylfuran-2-yl)pyrrolidine-2-carboxamide] (H-[NMeA][Chg][Pro(5R-(5-methylfur-2-yl))]I-NHCHPh2), the inhibition at 10 µM in series [1] (SW-620, 48 h) came to 81.8 ± 3.3%; in series [4] (HCT-116, 48 h) it was 66.2 ± 15%; in series [2] (HT-29, 48 h), 72.7 ± 6.9%. For the same compound, the inhibition at 48 h, 10 μM in series [3] (10 μM, 48 hours, SRB assay, read-out: In vitro cytotoxicity at 10 μM dose, VERO (percent growth inhibition)) worked out at 59.4 ± 11.7%. Also, the inhibition constant (Ki) is > 10000 nM in series [5] and 790 nM in series [6].

For the compound `N.N.[Cl][Pt][Cl]` [cisplatin, reference compound], the “In vivo anti tumor efficacy” value in series [7] is given as “failed to deliver its effect”.
